Measurements published in PMC12615863, “Improving GRPR-targeting peptides for radiotheranostics application: insights from chelator modifications and α-methyl-L tryptophan substitution” (EJNMMI Radiopharmacy and Chemistry, 2025).
Where two headings read alike, the source gives them in different places.

How the values were obtained:
PC-3 cells = experiment: In vitro GRPR specificity assay (uptake with or without NOTA-PEG2-RM26 block); assay type: cell-based, human
Description: After discarding the medium, the cells were washed with cold (4 °C) phosphate-buffered saline containing 1% w/v bovine serum albumin (PBS/BSA). The radiopeptides (Cf = 1 nM in 1 mL PBS/BSA) were added to all wells. A subset of wells was also treated with an excess of unlabeled GRPR-binding peptide NOTA-PEG2-RM26 (Bjäreback et al. [2025]) (Cf = 1 µM in 1 mL PBS/BSA) to block GRPR. After incubation for 1 h at 37 °C, the supernatant was removed, and the cells were washed and then collected by treating them with 1 M NaOH. The activity of the collected samples was measured with the gamma counter. This assay was performed in triplicate for each radiopeptide.

[1] = Biodistribution in mice bearing PC-3 xenografts; assay type: in vivo, Balb/c nu/nu mice; conditions: mouse, total radioactivity; for tissue uptake at 4 h / tissue uptake dose at 4 h: 4 h pi; for tissue uptake at 24 h / tissue uptake dose at 24 h: 24 h pi
Description: (§1) Each mouse was xenografted with a subcutaneous injection of 8 × 10⁶ PC-3 cells in the right hind leg. After approximately 4 weeks, the animals were injected into the tail vein with 100 µL of radiopeptide (100 pmol—110–130 kBq, diluted in PBS/BSA). Four animals were used for each time point per peptide. […] At the determined time points, the mice were euthanized, organs were collected and weighed, and their activity content was measured in the gamma counter. Results were presented as the percentage of injected activity per gram (%IA/g) for the collected organs, and the percentage of injected activity (%IA) for the gastrointestinal tract (GI) and the carcass. […] Statistical analysis was performed with GraphPad Prism 10 using two way ANOVA with Tuckey’s or Šidák’a post hoc analysis.

PC-3 xenografts = experiment: Biodistribution in mice bearing PC-3 xenografts; assay type: in vivo, Balb/c nu/nu mice; conditions: PC-3 xenografted mice, between 4 and 24 h pi
Description: as §1

[2] = In vivo stability: intact radiopeptide in peripheral mouse blood 5 min pi, radio-HPLC; conditions: for Percentage of intact peptide, Entresto: blood 5 min pi
Description: Two animals per peptide were injected intravenously with a bolus of test radioligand (50 MBq, 2 nmol of peptide in 100 μL PBS/EtOH v/v 9:1) – Control group. To inhibit NEP, additional groups of two mice per compound were orally treated with 12 mg Entresto® (Novartis, Basel, Switzerland) 30 min before receiving the intravenous injection—Entresto group. Five minutes post-injection (pi), the animals were euthanized, and the blood was collected and immediately mixed with EDTA (0.1 mM, 40 μL) in Eppendorf tubes on ice. The mixture was spun at 2000 g for 10 min at 4 °C in an Eppendorf Centrifuge 5430 R (Eppendorf AG, Hamburg, Germany), and the plasma was collected and diluted with an equal volume of MeCN (4 °C). After a second centrifugation at 15,000 g and 4 °C for 10 min, the supernatant was collected in an Eppendorf tube and concentrated to 50–100 μL at 50 °C using a mild stream of N2. PBS was added to the samples to reach a final volume of 200 μL, and the solutions were filtered through a syringe filter (0.22 μm, 13 mm, VWR International, Radnor, USA). The filtered solution was analyzed by reversed-phase radio-HPLC to determine the percentage of intact peptides. The peak corresponding to the intact peptide was identified by injection of an aliquot of the labeling solution.

[3] = Balb/c nu/nu, blood, iv, 100 pmol, PC-3 xenografted Balb/c nu/nu mice, iv 100 pmol, mean ± SD, n = 4, read-out: Blood activity uptake
[4] = Balb/c nu/nu, bone, iv, 100 pmol, PC-3 xenografted Balb/c nu/nu mice, iv 100 pmol, mean ± SD, n = 4, read-out: Bone activity uptake
[5] = Balb/c nu/nu, kidneys, iv, 100 pmol, PC-3 xenografted Balb/c nu/nu mice, iv 100 pmol, mean ± SD, n = 4, read-out: Kidneys activity uptake
[6] = Balb/c nu/nu, liver, iv, 100 pmol, PC-3 xenografted Balb/c nu/nu mice, iv 100 pmol, mean ± SD, n = 4, read-out: Liver activity uptake
[7] = Balb/c nu/nu, lungs, iv, 100 pmol, PC-3 xenografted Balb/c nu/nu mice, iv 100 pmol, mean ± SD, n = 4, read-out: Lungs activity uptake
[8] = Balb/c nu/nu, muscle, iv, 100 pmol, PC-3 xenografted Balb/c nu/nu mice, iv 100 pmol, mean ± SD, n = 4, read-out: Muscle activity uptake
[9] = Balb/c nu/nu, pancreas, iv, 100 pmol, PC-3 xenografted Balb/c nu/nu mice, iv 100 pmol, mean ± SD, n = 4, read-out: Pancreas activity uptake
[10] = Balb/c nu/nu, small intestine, iv, 100 pmol, PC-3 xenografted Balb/c nu/nu mice, iv 100 pmol, mean ± SD, n = 4, read-out: Small Int. activity uptake
[11] = Balb/c nu/nu, spleen, iv, 100 pmol, PC-3 xenografted Balb/c nu/nu mice, iv 100 pmol, mean ± SD, n = 4, read-out: Spleen activity uptake
[12] = Balb/c nu/nu, stomach, iv, 100 pmol, PC-3 xenografted Balb/c nu/nu mice, iv 100 pmol, mean ± SD, n = 4, read-out: Stomach activity uptake
[13] = Balb/c nu/nu, tumor, iv, 100 pmol, PC-3 xenografted Balb/c nu/nu mice, iv 100 pmol, mean ± SD, n = 4, read-out: Tumor activity uptake
[14] = carcass, PC-3 xenografted Balb/c nu/nu mice, iv 100 pmol, mean ± SD, n = 4, read-out: Body activity uptake
[15] = gastrointestinal tract with content, PC-3 xenografted Balb/c nu/nu mice, iv 100 pmol, mean ± SD, n = 4, read-out: GI activity uptake

## CC(C)C[C@H](NC(=O)C[C@H](O)[C@H](CC(C)C)NC(=O)[C@H](Cc1c[nH]cn1)NC(=O)CN(C)C(=O)[C@@H](NC(=O)[C@H](C)NC(=O)[C@](C)(Cc1c[nH]c2ccccc12)NC(=O)[C@H](CCC(N)=O)NC(=O)[C@@H](Cc1ccccc1)NC(=O)CN1CCC(NC(=O)COCCOCCNC(=O)CCC(C(=O)O)N2CCN(CC(=O)O)CCN(CC(=O)O)CCN(CC(=O)O)CC2)CC1)C(C)C)C(N)=O (stereo partly drawn) [[^177Lu]Lu-PKB2, metal not drawn]
PC-3 cells; 1 nM radiopeptide, 1 h at 37 °C, block with 1 µM NOTA-PEG2-RM26, n = 3
  in vitro binding specificity: GRPR-mediated activity uptake
PC-3 cells; 1 nM, 37 °C, n = 3
  total cellular activity uptake (rank among the three radiopeptides): lowest
[1]; Balb/c nu/nu, blood, iv, 100 pmol, PC-3 xenografted Balb/c nu/nu mice, iv 100 pmol, 2 h pi, mean ± SD, n = 4, read-out: Blood activity uptake
  tissue uptake at 2 h: 0.13 ± 0.05 %ID/g
[1]; [3]
  tissue uptake at 4 h: 0.07 ± 0.03 %ID/g
  tissue uptake at 24 h: 0.01 ± 0.01 %ID/g
[1]; Balb/c nu/nu, blood, iv, PC-3 xenografted Balb/c nu/nu mice, iv 100 pmol, 2 h pi blocked (co-injected 100-fold molar excess NOTA-PEG2-RM26), mean ± SD, n = 3, read-out: Blood activity uptake
  tissue uptake at 2 h: 0.06 ± 0.02 %ID/g
[1]; Balb/c nu/nu, blood, lungs, spleen, muscle, bone, iv, 100 pmol, PC-3 xenografted mice, 2 h pi, read-out: activity uptake in non-target organs (blood, lungs, spleen, muscle, and bone)
  tissue uptake at 2 h: < 0.6 %ID/g
[1]; Balb/c nu/nu, bone, iv, 100 pmol, PC-3 xenografted Balb/c nu/nu mice, iv 100 pmol, 2 h pi, mean ± SD, n = 4, read-out: Bone activity uptake
  tissue uptake at 2 h: 0.13 ± 0.07 %ID/g
[1]; [4]
  tissue uptake at 4 h: 0.14 ± 0.05 %ID/g
  tissue uptake at 24 h: 0.09 ± 0.04 %ID/g
[1]; Balb/c nu/nu, bone, iv, PC-3 xenografted Balb/c nu/nu mice, iv 100 pmol, 2 h pi blocked (co-injected 100-fold molar excess NOTA-PEG2-RM26), mean ± SD, n = 3, read-out: Bone activity uptake
  tissue uptake at 2 h: 0.13 ± 0.03 %ID/g
[1]; Balb/c nu/nu, gastrointestinal tract with content, iv, 100 pmol, PC-3 xenografted mice, all time points (2, 4, 24 h pi), read-out: activity uptake for the GI with content
  tissue uptake dose: < 2 %ID
[1]; Balb/c nu/nu, kidneys, iv, 100 pmol, PC-3 xenografted Balb/c nu/nu mice, iv 100 pmol, 2 h pi, mean ± SD, n = 4, read-out: Kidneys activity uptake
  tissue uptake at 2 h: 8.9 ± 2.5 %ID/g
[1]; [5]
  tissue uptake at 4 h: 9.5 ± 2.1 %ID/g
  tissue uptake at 24 h: 5.5 ± 0.6 %ID/g
[1]; Balb/c nu/nu, kidneys, iv, PC-3 xenografted Balb/c nu/nu mice, iv 100 pmol, 2 h pi blocked (co-injected 100-fold molar excess NOTA-PEG2-RM26), mean ± SD, n = 3, read-out: Kidneys activity uptake
  tissue uptake at 2 h: 7.6 ± 1.2 %ID/g
[1]; Balb/c nu/nu, liver, iv, 100 pmol, PC-3 xenografted Balb/c nu/nu mice, iv 100 pmol, 2 h pi, mean ± SD, n = 4, read-out: Liver activity uptake
  tissue uptake at 2 h: 0.24 ± 0.05 %ID/g
[1]; [6]
  tissue uptake at 4 h: 0.2 ± 0.03 %ID/g
  tissue uptake at 24 h: 0.14 ± 0.02 %ID/g
[1]; Balb/c nu/nu, liver, iv, PC-3 xenografted Balb/c nu/nu mice, iv 100 pmol, 2 h pi blocked (co-injected 100-fold molar excess NOTA-PEG2-RM26), mean ± SD, n = 3, read-out: Liver activity uptake
  tissue uptake at 2 h: 0.2 ± 0.02 %ID/g
[1]; [7]
  tissue uptake at 4 h: 0.3 ± 0.2 %ID/g
  tissue uptake at 24 h: 0.07 ± 0.01 %ID/g
[1]; Balb/c nu/nu, lungs, iv, PC-3 xenografted Balb/c nu/nu mice, iv 100 pmol, 2 h pi blocked (co-injected 100-fold molar excess NOTA-PEG2-RM26), mean ± SD, n = 3, read-out: Lungs activity uptake
  tissue uptake at 2 h: 0.21 ± 0.03 %ID/g
[1]; Balb/c nu/nu, muscle, iv, 100 pmol, PC-3 xenografted Balb/c nu/nu mice, iv 100 pmol, 2 h pi, mean ± SD, n = 4, read-out: Muscle activity uptake
  tissue uptake at 2 h: 0.07 ± 0.06 %ID/g
[1]; [8]
  tissue uptake at 4 h: 0.05 ± 0.02 %ID/g
  tissue uptake at 24 h: 0.02 ± 0.01 %ID/g
[1]; Balb/c nu/nu, muscle, iv, PC-3 xenografted Balb/c nu/nu mice, iv 100 pmol, 2 h pi blocked (co-injected 100-fold molar excess NOTA-PEG2-RM26), mean ± SD, n = 3, read-out: Muscle activity uptake
  tissue uptake at 2 h: 0.04 ± 0.01 %ID/g
[1]; Balb/c nu/nu, pancreas, iv, 100 pmol, PC-3 xenografted Balb/c nu/nu mice, iv 100 pmol, 2 h pi, mean ± SD, n = 4, read-out: Pancreas activity uptake
  tissue uptake at 2 h: 7.3 ± 3 %ID/g
[1]; [9]
  tissue uptake at 4 h: 2.9 ± 1 %ID/g
  tissue uptake at 24 h: 0.43 ± 0.09 %ID/g
[1]; Balb/c nu/nu, small intestine, iv, 100 pmol, PC-3 xenografted Balb/c nu/nu mice, iv 100 pmol, 2 h pi, mean ± SD, n = 4, read-out: Small Int. activity uptake
  tissue uptake at 2 h: 0.8 ± 0.5 %ID/g
[1]; [10]
  tissue uptake at 4 h: 0.5 ± 0.2 %ID/g
  tissue uptake at 24 h: 0.07 ± 0.04 %ID/g
[1]; Balb/c nu/nu, small intestine, iv, PC-3 xenografted Balb/c nu/nu mice, iv 100 pmol, 2 h pi blocked (co-injected 100-fold molar excess NOTA-PEG2-RM26), mean ± SD, n = 3, read-out: Small Int. activity uptake
  tissue uptake at 2 h: 0.3 ± 0.1 %ID/g
[1]; Balb/c nu/nu, spleen, iv, 100 pmol, PC-3 xenografted Balb/c nu/nu mice, iv 100 pmol, 2 h pi, mean ± SD, n = 4, read-out: Spleen activity uptake
  tissue uptake at 2 h: 0.15 ± 0.07 %ID/g
[1]; [11]
  tissue uptake at 4 h: 0.15 ± 0.06 %ID/g
  tissue uptake at 24 h: 0.11 ± 0.04 %ID/g
[1]; Balb/c nu/nu, spleen, iv, PC-3 xenografted Balb/c nu/nu mice, iv 100 pmol, 2 h pi blocked (co-injected 100-fold molar excess NOTA-PEG2-RM26), mean ± SD, n = 3, read-out: Spleen activity uptake
  tissue uptake at 2 h: 0.12 ± 0.04 %ID/g
[1]; [12]
  tissue uptake at 4 h: 1.3 ± 0.2 %ID/g
  tissue uptake at 24 h: 0.14 ± 0.07 %ID/g
[1]; Balb/c nu/nu, stomach, iv, PC-3 xenografted Balb/c nu/nu mice, iv 100 pmol, 2 h pi blocked (co-injected 100-fold molar excess NOTA-PEG2-RM26), mean ± SD, n = 3, read-out: Stomach activity uptake
  tissue uptake at 2 h: 0.36 ± 0.07 %ID/g
[1]; Balb/c nu/nu, stomach, small intestines, iv, 100 pmol, PC-3 xenografted mice, 2 h pi, read-out: activity uptake in the stomach and small intestines
  tissue uptake at 2 h: < 2.5 %ID/g
[1]; Balb/c nu/nu, tumor, iv, 100 pmol, PC-3 xenografted Balb/c nu/nu mice, iv 100 pmol, 2 h pi, mean ± SD, n = 4, read-out: Tumor activity uptake
  tissue uptake at 2 h: 15.8 ± 3.7 %ID/g
[1]; [13]
  tissue uptake at 4 h: 15.3 ± 1.4 %ID/g
  tissue uptake at 24 h: 12.1 ± 1.3 %ID/g
[1]; Balb/c nu/nu, tumor, iv, PC-3 xenografted Balb/c nu/nu mice, iv 100 pmol, 2 h pi blocked (co-injected 100-fold molar excess NOTA-PEG2-RM26), mean ± SD, n = 3, read-out: Tumor activity uptake
  tissue uptake at 2 h: 3.1 ± 0.9 %ID/g
[1]; carcass, PC-3 xenografted Balb/c nu/nu mice, iv 100 pmol, 2 h pi, mean ± SD, n = 4, read-out: Body activity uptake
  tissue uptake dose at 2 h: 1.8 ± 1.3 %ID
[1]; [14]
  tissue uptake dose at 4 h: 2.3 ± 0.8 %ID
  tissue uptake dose at 24 h: 0.5 ± 0.1 %ID
[1]; gastrointestinal tract with content, PC-3 xenografted Balb/c nu/nu mice, iv 100 pmol, 2 h pi, mean ± SD, n = 4, read-out: GI activity uptake
  tissue uptake dose at 2 h: 1.5 ± 0.4 %ID
[1]; [15]
  tissue uptake dose at 4 h: 0.7 ± 0.2 %ID
  tissue uptake dose at 24 h: 0.3 ± 0.2 %ID
PC-3 xenografts
  tumor retention of activity: around 80%
[2]; NMRI mice, 12 mg Entresto orally 30 min before injection, recorded value n1
  Percentage of intact peptide, Entresto: 92%
[2]; NMRI mice, 12 mg Entresto orally 30 min before injection, recorded value n2
  Percentage of intact peptide, Entresto: 94%
[2]; healthy NMRI mice, 12 mg Entresto orally 30 min before iv injection (NEP inhibition), radio-HPLC, mean of n = 2
  Percentage of intact peptide, Entresto: 93%
[2]; healthy NMRI mice, iv 50 MBq, 2 nmol, peripheral blood 5 min pi, radio-HPLC, mean of n = 2
  Percentage of intact peptide, Control: 85% [81% - 90%]
